Laboratory results from US7807701B2, “Dibenzylamine compounds and pharmaceutical use thereof” (Japan Tobacco Inc., priority 2002, dated 2010).
Counter-ions that a name gives are not always drawn.

The compounds below were run against T1, CETP (Homo sapiens, UniProt P11597) (assay: Inhibitory effect in vitro on CETP activity in total plasma). Details: plasma of healthy subject with [3H]CE-HDL3, 37° C., 4 hr; average values.
T1 construct: The donor lipoprotein obtained above was added to plasma of healthy subject; from tissue; host or cells: whole plasma of healthy subject
T1 sequence (P11597 18-493): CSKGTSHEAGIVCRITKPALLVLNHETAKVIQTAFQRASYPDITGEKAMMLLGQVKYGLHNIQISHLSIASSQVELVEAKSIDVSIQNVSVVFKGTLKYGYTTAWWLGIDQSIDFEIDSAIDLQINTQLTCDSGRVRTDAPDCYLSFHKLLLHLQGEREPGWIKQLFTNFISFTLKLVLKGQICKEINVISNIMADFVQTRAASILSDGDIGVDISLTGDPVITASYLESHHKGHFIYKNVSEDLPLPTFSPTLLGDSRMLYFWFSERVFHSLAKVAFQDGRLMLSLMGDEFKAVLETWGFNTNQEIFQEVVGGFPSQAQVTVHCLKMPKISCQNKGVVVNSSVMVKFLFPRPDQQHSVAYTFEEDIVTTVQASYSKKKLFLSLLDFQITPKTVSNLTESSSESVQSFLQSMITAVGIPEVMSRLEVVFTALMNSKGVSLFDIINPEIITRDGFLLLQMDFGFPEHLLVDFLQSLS
Type: biochemical
Procedure: Potassium bromide (KBr) was added to plasma (40 mL) of healthy subject and the mixture was adjusted to have a specific density d=1.125 g/mL. The mixture was subjected to density gradient centrifugation (227,000×g, 4° C., 17 hr) and a fraction showing a specific density of d>1.125 g/mL (HDL3 fraction) was harvested. The obtained fraction was dialyzed against PBS solution [10 mmol/L Na2HPO4; 10 mmol/L NaH2PO4; 0.15 mol/L NaCl; […] (pH 7.4)]. Then, tritium-labeled cholesterol (37 MBq) was dissolved in 95% ethanol, gradually added to the above-mentioned HDL3 fraction with stirring and incubated at 37° C. for 18 hr. [By this operation, tritium-labeled cholesterol was esterified by the action of lecithin acyl transferase (LCAT) present on the HDL3 surface and taken up into HDL3 as tritium-labeled cholesteryl ester ([^3H]CE)]. After incubation, KBr was added, the mixture was adjusted to have a specific density d=1.21 g/mL, subjected to density gradient centrifugation (227,000×g, 4° C., 17 hr) and a fraction of specific density […] was harvested. The obtained fraction was dialyzed against the aforementioned PBS solution to give HDL3 incorporating [^3H]CE ([^3H]CE-HDL3, specific density: 1.125<d<1.21, specific activity: 10,000 dpm/μL), which was used as a donor lipoprotein.
The donor lipoprotein obtained above was added to plasma of healthy subject to prepare a [^3H]CE-HDL3-containing plasma (1,000 dpm/μL). The compound was dissolved in dimethyl formamide. A solution of the compound or a solvent alone (2 μL) and the [^3H]CE-HDL3-containing plasma (100 μL) were added into a microtube, and this was incubated at 37° C. or 4° C. for 4 hr. After ice-cooling, TBS solution [100 μL, 20 mmol/L Tris; 0.15 mol/L NaCl (pH 7.4)] containing 1 mol/L magnesium chloride and 2% dextran sulfate was added to each microtube and the mixture was thoroughly stirred. After keeping at 4° C. for 30 min, the mixture was centrifuged (10,000×g, 4° C., 10 min), and the radioactivity in the obtained supernatant (HDL fraction) was measured with a scintillation counter. […] The concentration of the compound necessary for inhibiting the CETP activity by 50% was calculated as an IC50 value.
In the case of `CCN(CC1CCCC1)c1cc2c(cc1CN(Cc1cc(C(F)(F)F)cc(C(F)(F)F)c1)c1cnn(C)c1)CCC2` [Example 28, N-[3,5-bis(trifluoromethyl)benzyl]-N-[6-(N′-cyclopentylmethyl-N′-ethylamino)indan-5-ylmethyl]-(1-methyl-1H-pyrazol-4-yl)amine hydrochloride], the IC50 is reported as 440 nM. Work on `CCN(C[C@H]1CC[C@H](C(=O)O)CC1)c1cc2c(cc1CN(Cc1cc(C(F)(F)F)cc(C(F)(F)F)c1)c1ncn(C)n1)CCCC2` [Example 69, trans-4-{[N-(3-{[N′-[3,5-bis(trifluoromethyl)benzyl]-N′-(1-methyl-1H-[1,2,4]triazol-3-yl)amino]methyl}-5,6,7,8-tetrahydronaphthalen-2-yl)-N-ethylamino]methyl}cyclohexanecarboxylic acid hydrochloride] yielded an IC50 of 340 nM. `CCN(C[C@H]1CC[C@H](C(=O)O)CC1)c1cc2c(cc1CN(Cc1cc(C(F)(F)F)cc(C(F)(F)F)c1)c1ncn(C)n1)CCC2` [Example 59, trans-4-{[N-(6-{[N′-[3,5-bis(trifluoromethyl)benzyl]-N′-(1-methyl-1H-[1,2,4]triazol-3-yl)amino]methyl}indan-5-yl)-N-ethylamino]methyl}cyclohexanecarboxylic acid hydrochloride] was tested, and the IC50 was 430 nM. In the case of `CCN(CCCCC(=O)O)c1cc2c(cc1CN(Cc1cc(C#N)cc(C(F)(F)F)c1)c1cc(C)no1)CCCC2` [Example 79, 5-[N-(3-{[N′-(3-cyano-5-trifluoromethylbenzyl)-N′-(3-methylisoxazol-5-yl)amino]methyl}-5,6,7,8-tetrahydronaphthalen-2-yl)-N-ethylamino]pentanoic acid hydrochloride], the IC50 is reported as 890 nM. Compound `CCN(CCCCC(=O)OC)c1cc2c(cc1CN(Cc1cc(C#N)cc(C(F)(F)F)c1)c1ncn(C)n1)CCCC2` [Example 75, methyl 5-[N-(3-{[N′-(3-cyano-5-trifluoromethylbenzyl)-N′-(1-methyl-1H-[1,2,4]triazol-3-yl)amino]methyl}-5,6,7,8-tetrahydronaphthalen-2-yl)-N-ethylamino]pentanoate hydrochloride] has an IC50 of 410 nM. `CCN(C[C@H]1CC[C@H](CC(N)=O)CC1)c1cc2c(cc1CN(Cc1cc(C(F)(F)F)cc(C(F)(F)F)c1)c1nnn(C)n1)OC(F)(F)C(F)(F)O2` [Example 138, trans-2-(4-{[N-(7-{[N′-[3,5-bis(trifluoromethyl)benzyl]-N′-(2-methyl-2H-tetrazol-5-yl)amino]methyl}-2,2,3,3-tetrafluoro-2,3-dihydrobenzo[1,4]dioxin-6-yl)-N-ethylamino]methyl}cyclohexyl)acetamide hydrochloride] gave an IC50 of 160 nM. Compound `CCN(C[C@H]1CC[C@H](C(=O)O)CC1)c1ccc(OC(F)(F)F)cc1CN(Cc1cc(Cl)cc(Cl)c1)c1nnn(C)n1` [Example 129, trans-4-{[N-(2-{[N′-(3,5-dichlorobenzyl)-N′-(2-methyl-2H-tetrazol-5-yl)amino]methyl}-4-trifluoromethoxyphenyl)-N-ethylamino]methyl}cyclohexanecarboxylic acid hydrochloride] has an IC50 of 610 nM. `CCN(C[C@H]1CC[C@H](C(=O)O)CC1)c1cc2c(cc1CN(Cc1cc(C#N)cc(C(F)(F)F)c1)c1ccn(C)n1)CCCC2` [Example 45, trans-4-{[N-(3-{[N′-(3-cyano-5-trifluoromethylbenzyl)-N′-(1-methyl-1H-pyrazol-3-yl)amino]methyl}-5,6,7,8-tetrahydronaphthalen-2-yl)-N-ethylamino]methyl}cyclohexanecarboxylic acid hydrochloride] was tested, and the IC50 was 490 nM. With `CCN(CC1CCCC1)c1ccc(C(F)(F)F)cc1CN(Cc1cc(C(F)(F)F)cc(C(F)(F)F)c1)c1nnn(C)n1` [Example 33, N-[3,5-bis(trifluoromethyl)benzyl]-N-[2-(N′-cyclopentylmethyl-N′-ethylamino)-5-trifluoromethylbenzyl]-(2-methyl-2H-tetrazol-5-yl)amine hydrochloride] the IC50 was 560 nM. With `CCN(CCC(C)(C)CC(=O)O)c1ccc(OC(F)(F)F)cc1CN(Cc1cc(C(F)(F)F)cc(C(F)(F)F)c1)c1nnn(C)n1` [Example 104, 5-[N-(2-{[N′-[3,5-bis(trifluoromethyl)benzyl]-N′-(2-methyl-2H-tetrazol-5-yl)amino]methyl}-4-trifluoromethoxyphenyl)-N-ethylamino]-3,3-dimethylpentanoic acid hydrochloride] the IC50 was 350 nM. Compound `CCN(CC(C)(C)CCC(=O)O)c1cc2c(cc1CN(Cc1cc(C(F)(F)F)cc(C(F)(F)F)c1)c1nnn(C)n1)CCC2` [Example 114, 5-[N-(6-{[N′-[3,5-bis(trifluoromethyl)benzyl]-N′-(2-methyl-2H-tetrazol-5-yl)amino]methyl}indan-5-yl)-N-ethylamino]-4,4-dimethylpentanoic acid hydrochloride] has an IC50 of 280 nM. `CCN(C[C@H]1CC[C@H](C(=O)O)CC1)c1ccc(OC(F)(F)F)cc1CN(Cc1cc(Cl)cc(C(F)(F)F)c1)c1nnn(C)n1` [Example 131, trans-4-{[N-(2-{[N′-(3-chloro-5-trifluoromethylbenzyl)-N′-(2-methyl-2H-tetrazol-5-yl)amino]methyl}-4-trifluoromethoxyphenyl)-N-ethylamino]methyl}cyclohexanecarboxylic acid hydrochloride] was tested, and the IC50 was 170 nM. In the case of `CCN(CCC(C)(C)CC(=O)O)c1ccc(C(F)(F)F)cc1CN(Cc1cc(C(F)(F)F)cc(C(F)(F)F)c1)c1nnn(C)n1` [Example 105, 5-[N-(2-{[N′-[3,5-bis(trifluoromethyl)benzyl]-N′-(2-methyl-2H-tetrazol-5-yl)amino]methyl}-4-trifluoromethylphenyl)-N-ethylamino]-3,3-dimethylpentanoic acid hydrochloride], the IC50 is reported as 600 nM. `CCN(CCC(C)(C)CC(=O)O)c1cc2c(cc1CN(Cc1cc(C(F)(F)F)cc(C(F)(F)F)c1)c1ccn(C)n1)CCC2` [Example 102, 5-[N-(6-{[N′-[3,5-bis(trifluoromethyl)benzyl]-N′-(1-methyl-1H-pyrazol-3-yl)amino]methyl}indan-5-yl)-N-ethylamino]-3,3-dimethylpentanoic acid] showed an IC50 of 590 nM. `CCN(CC1CCCC1)c1cc2c(cc1CN(Cc1cc(C(F)(F)F)cc(C(F)(F)F)c1)c1cc(C)[nH]n1)CCC2` [Example 7, N-[6-(N′-cyclopentylmethyl-N′-ethylamino)indan-5-ylmethyl]-N-[3,5-bis(trifluoromethyl)benzyl]-(5-methyl-1H-pyrazol-3-yl)amine] was tested, and the IC50 was 270 nM. `CCCN(C[C@H]1CC[C@H](C(=O)O)CC1)c1ccc(OC(F)(F)F)cc1CN(Cc1cc(C(F)(F)F)cc(C(F)(F)F)c1)c1nnn(C)n1` [Example 121, trans-4-{[N-(2-{[N′-[3,5-bis(trifluoromethyl)benzyl]-N′-(2-methyl-2H-tetrazol-5-yl)amino]methyl}-4-trifluoromethoxyphenyl)-N-propylamino]methyl}cyclohexanecarboxylic acid hydrochloride] was tested, and the IC50 was 230 nM. In the case of `CCN(CCCCC(=O)OC)c1cc2c(cc1CN(Cc1cc(C#N)cc(C(F)(F)F)c1)c1ccn(C)n1)CCCC2` [Example 64, methyl 5-[N-(3-{[N′-(3-cyano-5-trifluoromethylbenzyl)-N′-(1-methyl-1H-pyrazol-3-yl)amino]methyl}-5,6,7,8-tetrahydronaphthalen-2-yl)-N-ethylamino]pentanoate hydrochloride], the IC50 is reported as 750 nM.
